Earlier results on five molecules are cited in patent US6114314A (priority 1994, dated 2000).

One series relates to macrophages. The following applies: tissue culture.
The test system of a further series is experiment neoplasm. As to conditions: with Interleukin 2.
The conditions of series [1]: in cross-linked hyaluronic acid gel.
The next series has as its system rabbit eye. The following applies: in vivo.

With `CC(=O)Oc1ccccc1C(=O)O` [ASA, acetylsalicylic acid], the “malfunction of macrophages (block due to excessive prostaglandin)” value (“malfunction of macrophages” below) in the series with macrophages is on record as “can be altered”.
As for `COc1ccc2c(c1)c(CC(=O)O)c(C)n2C(=O)c1ccc(Cl)cc1` [indomethacin], in the series with experiment neoplasm, the “cure of experiment neoplasm” value is recorded as “could effect a cure”. In addition, in the series on macrophages, the “malfunction of macrophages” value is “can be altered”.
Regarding `COc1ccc2cc([C@H](C)C(=O)O)ccc2c1` [naproxen], the “malfunction of macrophages” value with macrophages is listed as “can be altered”.
For the molecule heparin, the antithrombogenic activity result in series [1] is on record as “retained its antithrombogenic activity”.
Consider “sodium hyaluronate [sodium hyaluronate (LifeCore)]”, for which, in the series on rabbit eye, the “Biological Safety Testing, Rabbit Ocular Toxicity Test” value is on record as “Passes”.
